The results in this text go back to patent publication US8742106B2 (Novartis AG, priority 2009, dated 2014).

In one assay the target is human orexin 1 receptors (Homo sapiens (Human), UniProt O43613). The assay is described as follows: Calcium Accumulation in Cells (FLIPR), antagonism of orexin A. The assay is classed as cell-based. The following applies: for inhibition at 10 µM: measured at a concentration of 10 μM of compound, read-out: FLIPR hOx1R % inhibition value; for Ki: antagonism of orexin A, Cheng-Prusoff corrected, read-out: FLIPR hOx1R Ki.
Chain of human orexin 1 receptors (O43613 whole entry): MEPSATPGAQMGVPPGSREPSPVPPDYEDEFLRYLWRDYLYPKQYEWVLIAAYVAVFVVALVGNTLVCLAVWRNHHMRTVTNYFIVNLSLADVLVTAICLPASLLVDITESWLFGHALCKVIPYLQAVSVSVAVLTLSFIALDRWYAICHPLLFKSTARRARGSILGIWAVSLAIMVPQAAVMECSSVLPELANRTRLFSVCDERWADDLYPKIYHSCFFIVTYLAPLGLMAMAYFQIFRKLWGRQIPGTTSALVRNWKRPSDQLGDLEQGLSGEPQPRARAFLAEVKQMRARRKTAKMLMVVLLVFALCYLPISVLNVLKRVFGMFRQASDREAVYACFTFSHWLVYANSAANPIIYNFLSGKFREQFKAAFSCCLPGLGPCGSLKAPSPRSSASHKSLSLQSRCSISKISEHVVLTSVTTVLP

A further assay concerns the target human orexin 2 receptors (Homo sapiens (Human), UniProt O43614). The assay is described as above. The assay is classed as cell-based. The following applies: for inhibition at 10 µM: measured at a concentration of 10 μM of compound, read-out: FLIPR hOx2R % inhibition value; for Ki: antagonism of orexin A, Cheng-Prusoff corrected, read-out: FLIPR hOx2R Ki. Summed up: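 Antagonism was measured as block of orexin A-evoked Ca²⁺ fluorescence (FLIPR), with orexin A added one hour after test compound (usually 10^−9–10^−5 M), which was first read alone for agonist activity. Human orexin 2 receptor cells were dye-loaded with 2 μM Fluo4-AM and 0.1 mM probenecid for 1 h.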

Chain of human orexin 2 receptors (O43614 whole entry): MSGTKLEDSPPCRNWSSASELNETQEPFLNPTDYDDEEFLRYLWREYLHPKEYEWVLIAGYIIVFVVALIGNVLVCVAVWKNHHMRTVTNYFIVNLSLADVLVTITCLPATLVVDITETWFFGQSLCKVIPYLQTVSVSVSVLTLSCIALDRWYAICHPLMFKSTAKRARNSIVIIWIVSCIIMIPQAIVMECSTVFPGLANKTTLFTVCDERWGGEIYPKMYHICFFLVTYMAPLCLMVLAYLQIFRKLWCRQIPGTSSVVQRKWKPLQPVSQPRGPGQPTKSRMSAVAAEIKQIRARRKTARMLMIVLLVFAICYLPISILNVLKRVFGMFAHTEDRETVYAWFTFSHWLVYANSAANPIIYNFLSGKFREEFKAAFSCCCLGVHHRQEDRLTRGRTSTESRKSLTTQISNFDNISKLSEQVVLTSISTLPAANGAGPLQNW

Broadly, the inhibition is the percentage by which the read-out fell short of the control. Consider `Cc1nn(C)c(C)c1C(C)NC(=O)COc1cc(C)c2c(C(C)C)nn(C)c2n1` (centres unmarked) [Example 6.29, 2-(3-isopropyl-1,4-dimethyl-1H-pyrazolo[3,4-b]pyridin-6-yloxy)-N-(1-(1,3,5-trimethyl-1H-pyrazol-4-yl)ethyl)acetamide], for which the values for the inhibition at 10 µM on human orexin 1 receptors and on human orexin 2 receptors were 36% and 34%, respectively.
The term Ki denotes a dissociation constant, usually derived from enzyme kinetics or from competition with a known ligand. Take `Cc1ccc([C@H](C)NC(=O)COc2nc3c(cc2C)c(C2CC2)nn3C)cc1` [Example 6.60, (S)-2-(3-cyclopropyl-1,5-dimethyl-1H-pyrazolo[3,4-b]pyridin-6-yloxy)-N-(1-p-tolylethyl)acetamide]: the inhibition at 10 µM on human orexin 1 receptors worked out at 11%. Besides, on human orexin 2 receptors, the Ki was determined as 1170 nM.
Turning to `Cc1ccc([C@H](C)NC(=O)COc2cc(C)c3c(-c4cnc(C)n4C)nn(C)c3n2)cc1` [Example 4.4, (S)-2-(3-(1,2-dimethyl-1H-imidazol-5-yl)-1,4-dimethyl-1H-pyrazolo[3,4-b]pyridin-6-yloxy)-N-(1-p-tolylethyl)acetamide], the inhibition constant (Ki) on human orexin 1 receptors is 799 nM; on human orexin 2 receptors it was 725 nM.
The like results for `Cn1nc(-c2ccccc2)c2c(C(F)(F)F)cc(OCC(=O)NCc3ccccc3F)nc21` [Example 1.42, N-(2-fluorobenzyl)-2-(1-methyl-3-phenyl-4-(trifluoromethyl)-1H-pyrazolo[3,4-b]pyridin-6-yloxy)acetamide] were, in that order, 1590 nM and 890 nM.
Regarding `Cc1cc(OCC(=O)NCc2ccc3c(c2)CCO3)nc2c1c(C1CC1)nn2C` [Example 7.4, 2-(3-cyclopropyl-1H-dimethyl-1H-pyrazolo[3,4-b]pyridin-6-yloxy)-N-((2,3-dihydrobenzofuran-5-yl)methyl)acetamide], the inhibition at 10 µM was less than 10% on human orexin 1 receptors and 26% on human orexin 2 receptors.
As for `COc1ccc(CNC(=O)COc2cc(C)c3c(C4CC4)nn(C)c3n2)c(OC)c1` [Example 7.27, 2-(3-cyclopropyl-1,4-dimethyl-1H-pyrazolo[3,4-b]pyridin-6-yloxy)-N-(2,4-dimethoxybenzyl)acetamide], the inhibition at 10 µM on human orexin 1 receptors was 48%. For the same molecule, the Ki on human orexin 2 receptors amounted to 472 nM.
Take `Cc1nn(C)c(C)c1C(C)NC(=O)COc1cc(C(F)(F)F)c2c(C3CC3)nn(C)c2n1` (centres unmarked) [Example 6.12, 2-(3-cyclopropyl-1-methyl-4-(trifluoromethyl)-1H-pyrazolo[3,4-b]pyridin-6-yloxy)-N-(1-(1,3,5-trimethyl-1H-pyrazol-4-yl)ethyl)acetamide]: the results for the Ki at human orexin 1 receptors and at human orexin 2 receptors were 680 nM and 165 nM, respectively.
As for `Cc1nn(C)c(C)c1C(C)NC(=O)COc1cc(C(F)F)c2c(C3CC3)nn(C)c2n1` (centres unmarked) [Example 6.9, 2-(3-cyclopropyl-4-(difluoromethyl)-1-methyl-1H-pyrazolo[3,4-b]pyridin-6-yloxy)-N-(1-(1,3,5-trimethyl-1H-pyrazol-4-yl)ethyl)acetamide], the Ki at human orexin 1 receptors was 778 nM; on human orexin 2 receptors, 527 nM.
`CC(Oc1cc(C(F)(F)F)c2c(-c3ccccc3)nn(C)c2n1)C(=O)N[C@@H](C)c1ccccc1` (single isomer, unassigned) [Example 1.74]: the inhibition at 10 µM on human orexin 1 receptors and on human orexin 2 receptors was less than 10% each time.
Turning to `CCn1cnnc1C(C)NC(=O)COc1cc(C(F)(F)F)c2c(-c3ccccc3)nn(C)c2n1` (centres unmarked) [Example 1.35, N-(1-(4-ethyl-4H-1,2,4-triazol-3-yl)ethyl)-2-(1-methyl-3-phenyl-4-(trifluoromethyl)-1H-pyrazolo[3,4-b]pyridin-6-yloxy)acetamide], the inhibition at 10 µM on human orexin 1 receptors and at human orexin 2 receptors was 22% in each case.
For the molecule `C[C@H](NC(=O)CNc1cc(C(F)(F)F)c2c(-c3ccccc3)nn(C)c2n1)c1ccccc1` [Example 3.1, (S)-2-(1-methyl-3-phenyl-4-(trifluoromethyl)-1H-pyrazolo[3,4-b]pyridin-6-ylamino)-N-(1-phenylethyl)acetamide], the inhibition constant Ki on human orexin 1 receptors came out at 357 nM; on human orexin 2 receptors, 1140 nM.
Taken in the same sequence, the figures for `COc1ccc([C@H](C)NC(=O)C(C)Oc2cc(C)c3c(C4CC4)nn(C)c3n2)cc1` (stereo partly drawn) [Example 6.70, 2-(3-cyclopropyl-1,4-dimethyl-1H-pyrazolo[3,4-b]pyridin-6-yloxy)-N-((S)-1-(4-methoxyphenyl)ethyl)propanamide] were 1060 nM and 1070 nM.
Take `Cc1cc(OCC(=O)NCc2cccc3[nH]ncc23)nc2c1c(C1CC1)nn2C` [Example 7.15, N-((1H-indazol-4-yl)methyl)-2-(3-cyclopropyl-1,4-dimethyl-1H-pyrazolo[3,4-b]pyridin-6-yloxy)acetamide]: the inhibition at 10 µM on human orexin 1 receptors was found to be 26%; on human orexin 2 receptors, 18%.
On to `Cc1cc(OCC(=O)NC(C)c2cn3ccsc3n2)nc2c1c(C1CC1)nn2C` (centres unmarked) [Example 7.25, 2-(3-cyclopropyl-1,4-dimethyl-1H-pyrazolo[3,4-b]pyridin-6-yloxy)-N-(1-(imidazo[2,1-b]thiazol-6-yl)ethyl)acetamide], for which the values for the Ki on human orexin 1 receptors and at human orexin 2 receptors were 1560 nM and 584 nM, respectively.
`Cc1ccc([C@H](C)NC(=O)COc2nc3c(c(C4CC4)nn3C)c(C)c2C)cc1` [Example 6.75, (S)-2-(3-cyclopropyl-1,4,5-trimethyl-1H-pyrazolo[3,4-b]pyridin-6-yloxy)-N-(1-p-tolylethyl)acetamide]: the Ki on human orexin 1 receptors was determined as 1750 nM; at human orexin 2 receptors, 567 nM.
Turning to `Cc1cc(OCC(=O)NCCc2ccccc2)nc2c1c(C1CC1)nn2C` [Example 6.49, 2-(3-cyclopropyl-1,4-dimethyl-1H-pyrazolo[3,4-b]pyridin-6-yloxy)-N-phenethylacetamide], the inhibition at 10 µM at human orexin 1 receptors was found to be 21%. For the same molecule, on human orexin 2 receptors, the inhibition constant Ki is 611 nM.
As for `Cc1cc(OCC(=O)NCC(C)C)nc2c1c(C1CC1)nn2C` [Example 6.45, 2-(3-cyclopropyl-1,4-dimethyl-1H-pyrazolo[3,4-b]pyridin-6-yloxy)-N-isobutylacetamide], the inhibition at 10 µM was found to be 20% on human orexin 1 receptors and 19% at human orexin 2 receptors.
On to `COc1cccc2c1CCCC2NC(=O)COc1cc(C)c2c(C3CC3)nn(C)c2n1` (centres unmarked) [Example 7.32, 2-(3-cyclopropyl-1,4-dimethyl-1H-pyrazolo[3,4-b]pyridin-6-yloxy)-N-(5-methoxy-1,2,3,4-tetrahydronaphthalen-1-yl)acetamide], for which the inhibition constant (Ki) on human orexin 1 receptors came to 138 nM; at human orexin 2 receptors it was 301 nM.
In the case of `Cc1cc(OCC(=O)NC(C)c2ccccn2)nc2c1c(-c1ccccc1)nn2C` (centres unmarked) [Example 1.65, 2-(1,4-dimethyl-3-phenyl-1H-pyrazolo[3,4-b]pyridin-6-yloxy)-N-(1-(pyridin-2-yl)ethyl)acetamide], the inhibition at 10 µM on human orexin 1 receptors stood at 26%; on human orexin 2 receptors it was 30%.
The like results for `CC(C)CCNC(=O)COc1cc(C(F)(F)F)c2c(-c3ccccc3)nn(C)c2n1` [Example 1.68, N-isopentyl-2-(1-methyl-3-phenyl-4-(trifluoromethyl)-1H-pyrazolo[3,4-b]pyridin-6-yloxy)acetamide] were, in that order, less than 10% and 16%.
The like results for `COc1ccc([C@H](C)NC(=O)COc2nc3c(c(C4CC4)nn3C)c(C)c2C)cc1` [Example 6.74, (S)-2-(3-cyclopropyl-1,4,5-trimethyl-1H-pyrazolo[3,4-b]pyridin-6-yloxy)-N-(1-(4-methoxyphenyl)ethyl)acetamide] were, in that order, 23% and 38%.
Consider `COc1ccc([C@H](C)NC(=O)COc2cc(C)c3c(C(C)C)nn(C)c3n2)cc1` [Example 6.27, (S)-2-(3-isopropyl-1,4-dimethyl-1H-pyrazolo[3,4-b]pyridin-6-yloxy)-N-(1-(4-methoxyphenyl)ethyl)acetamide], for which the inhibitory constant (Ki) is 415 nM on human orexin 1 receptors and 105 nM on human orexin 2 receptors.
Turning to `COc1ccc2c(c1)CC[C@@H]2NC(=O)C(C)Oc1cc(C)c2c(C3CC3)nn(C)c2n1` (single isomer, unassigned) [Example 6.72, (S or R)-2-(3-cyclopropyl-1,4-dimethyl-1H-pyrazolo[3,4-b]pyridin-6-yloxy)-N-((S)-5-methoxy-2,3-dihydro-1H-inden-1-yl)propanamide], the figures for the inhibition at 10 µM at human orexin 1 receptors and at human orexin 2 receptors were 46% and 48%, respectively.
In the case of `Cc1cc(OCC(=O)NC(C)c2cccnc2)nc2c1c(-c1ccccc1)nn2C` (centres unmarked) [Example 1.64, 2-(1,4-dimethyl-3-phenyl-1H-pyrazolo[3,4-b]pyridin-6-yloxy)-N-(1-(pyridin-3-yl)ethyl)acetamide], the inhibition at 10 µM at human orexin 1 receptors came to 26%; at human orexin 2 receptors, 39%.
For `C[C@H](NC(=O)COc1cc(C(F)(F)F)c2c(-c3ccccc3)noc2n1)c1ccccc1` [Example 6.78, (S)-2-(3-phenyl-4-(trifluoromethyl)isoxazolo[5,4-b]pyridin-6-yloxy)-N-(1-phenylethyl)acetamide], at human orexin 1 receptors, the inhibition at 10 µM was determined as 43%. On human orexin 2 receptors, the inhibitory constant (Ki) was determined as 1830 nM.
`Cc1cc(OCC(=O)NCc2cccc3cnn(C)c23)nc2c1c(C1CC1)nn2C` [Example 7.10, 2-(3-cyclopropyl-1,4-dimethyl-1H-pyrazolo[3,4-b]pyridin-6-yloxy)-N-((1-methyl-1H-indazol-7-yl)methyl)acetamide]: the inhibition at 10 µM at human orexin 1 receptors was 34%; on human orexin 2 receptors, 40%.
On to `C[C@H](NC(=O)COc1cc(C(F)(F)F)c2c(-c3cccnc3)nn(C)c2n1)c1ccccc1` [Example 1.34, (S)-2-(1-methyl-3-(pyridin-3-yl)-4-(trifluoromethyl)-1H-pyrazolo[3,4-b]pyridin-6-yloxy)-N-(1-phenylethyl)acetamide], for which the results for the inhibitory constant (Ki) on human orexin 1 receptors and on human orexin 2 receptors were 869 nM and 323 nM, respectively.
`Cn1nc(-c2ccccc2)c2c(C(F)(F)F)cc(OCC(=O)NC3CCCc4ccccc43)nc21` (centres unmarked) [Example 1.56, 2-(1-methyl-3-phenyl-4-(trifluoromethyl)-1H-pyrazolo[3,4-b]pyridin-6-yloxy)-N-(1,2,3,4-tetrahydronaphthalen-1-yl)acetamide]: the inhibitory constant (Ki) at human orexin 1 receptors worked out at 378 nM; on human orexin 2 receptors, 165 nM.
